Laboratory results published in publication PMC9425435, “Antiviral Profiling of C-18- or C-19-Functionalized Semisynthetic Abietane Diterpenoids” (Journal of Natural Products, 2022).
Like-named read-outs stand apart in the source and are kept apart here. Marks after values point to notes of the source that are not given here.

Key:
[1] = tested on: Vero-E6 cells; test: Cytotoxicity CC100 in Vero-E6 cells (72 h); conditions: for CC100 (100% cytotoxic concentration): Vero-E6 cells, 72h; for Cytostatic compounds (asterisk at the label): Table 1 footnote mark
[2] = tested on: ZIKV (Zika virus); test: Plaque reduction assay (PFU), ZIKV in Vero E6; type: cell-based; conditions: ZIKV, Vero E6, PFU/well 150 ± 25
[3] = tested on: ZIKV (Zika virus); test: End-point titration technique (EPTT), cytopathic effect inhibition, ZIKV in Vero E6; type: cell-based; conditions: Vero E6, 10TCID50, EPTT
[4] = tested on: BHK-21 cells; test: Cytotoxicity CC100 in BHK-21 cells (6 days)
[5] = tested on: CHIKV (Chikungunya virus); test: End-point titration technique (EPTT), viral titer reduction factor, CHIKV in Vero E6; type: cell-based; conditions: for Rf (reduction factor of the viral titer): Vero E6, 10TCID50, EPTT
[6] = tested on: HHV-1, 29R strain; type: cell-based, human Alpha herpesvirus type 1
[7] = tested on: DENV-2 (Dengue virus type 2); test: End-point titration technique (EPTT), cytopathic effect inhibition, DENV-2 in Vero E6; type: cell-based; conditions: DENV-2, Vero E6, 10TCID50, EPTT
[8] = tested on: DENV-2 (Dengue virus type 2); test: Plaque reduction assay (PFU), DENV-2 in BHK21; type: cell-based; conditions: for % inhibition (PFU): DENV-2, BHK21, PFU/well 150 ± 25

Row | Compound | CC100 (100% cytotoxic concentration) [1] | % inhibition (PFU) [2] | CC100 (100% cytotoxic concentration) [4] | Rf (reduction factor of the viral titer) ([6]; Vero E6, 10TCID50, EPTT) | further results
1 | COC(=O)[C@]1(C)CCC[C@]2(C)c3ccc(C(C)C)cc3CC[C@@H]12 [Compound 12, methyl dehydroabietate] | >50 µg/mL | 25 ± 10% | 50 µg/mL | – | inhibition ECytop (inhibitory cytopathic effect compared to the infection control) [3]: +
2 | CC(C)c1cc2c(cc1O)[C@@]1(C)CCC[C@](C)(CO)[C@@H]1CC2 [Compound 20b, 19-hydroxyferruginol] | 25 µg/mL | – | 12.5 µg/mL | – | inhibition ECytop (inhibitory cytopathic effect compared to the infection control) [3]: +; Rf (reduction factor of the viral titer) [5]: 10^2
3 | COC(=O)[C@@]1(C)CCC[C@]2(C)c3cc(OC(C)=O)c(C(C)C)cc3CC[C@@H]12 [Compound 16b] | 25 µg/mL | 29 ± 9% | 25 µg/mL | not active | inhibition ECytop (inhibitory cytopathic effect compared to the infection control) [3]: +; inhibition ECytop (inhibitory cytopathic effect compared to the infection control) [7]: +
4 | COC(=O)[C@@]1(C)CCC[C@]2(C)c3cc(O)c(C(C)C)cc3C(=O)C[C@@H]12 [Compound 22b] | 25 µg/mL | – | 12.5 µg/mL | not active | inhibition ECytop (inhibitory cytopathic effect compared to the infection control) [7]: +
5 | CC(C)c1ccc2c(c1)CC[C@H]1C(C)(CO)CCC[C@]21C (some centres unmarked) [Compound 14] | >50 µg/mL | 37 ± 15% | >50 µg/mL | not active | % inhibition (PFU) [8]: 30 ± 10%; Rf (reduction factor of the viral titer) [5]: 10^2
6 | CC(C)c1cc2c(cc1O)[C@@]1(C)CCC[C@](C)(C(=O)O)[C@@H]1CC2 [Compound 19b, lambertic acid] | >50 µg/mL | 27 ± 17% | >50 µg/mL | – | inhibition ECytop (inhibitory cytopathic effect compared to the infection control) [3]: +; % inhibition (PFU) [8]: 35 ± 10%
7 | COC(=O)[C@]1(C)CCC[C@]2(C)c3cc(O)c(C(C)C)cc3C(=O)C[C@@H]12 [Compound 22a] | 50 µg/mL | – | 25 µg/mL | – | –
8 | COC(=O)[C@]1(C)CCC[C@]2(C)c3cc(OC(C)=O)c(C(C)C)cc3CC[C@@H]12 [Compound 16a] | 50 µg/mL | 22 ± 13% | 50 µg/mL | – | inhibition ECytop (inhibitory cytopathic effect compared to the infection control) [3]: +; Rf (reduction factor of the viral titer) [5]: 10^2
9 | COC(=O)[C@@]1(C)CCC[C@]2(C)c3cc(O)c(C(C)C)cc3CC[C@@H]12 [Compound 18b] | >50 µg/mL | 48 ± 12% | 50 µg/mL | not active | % inhibition (PFU) [8]: 51 ± 8%; Rf (reduction factor of the viral titer) [5]: 10^2
10 | CC(C)c1cc2c(cc1O)[C@@]1(C)CCC[C@@](C)(CO)[C@@H]1CC2 [Compound 20a, 18-hydroxyferruginol] | 50 µg/mL | 19 ± 11% | 50 µg/mL | – | Cytostatic effect [1]: cytostatic; Cytostatic compounds (asterisk at the label) [1]: 20a*; % inhibition (PFU) [8]: 25 ± 10%; Rf (reduction factor of the viral titer) [5]: 10^2
11 | COC(=O)[C@@]1(C)CCC[C@]2(C)c3cc(OC(C)=O)c(C(C)C)cc3C(=O)C[C@@H]12 [Compound 17b] | 50 µg/mL | – | 25 µg/mL | not active | inhibition ECytop (inhibitory cytopathic effect compared to the infection control) [3]: +
12 | COC(=O)[C@]1(C)CCC[C@]2(C)c3cc(OC(C)=O)c(C(C)C)cc3C(=O)C[C@@H]12 [Compound 17a] | 25 µg/mL | – | 25 µg/mL | – | –
13 | CC(C)c1ccc2c(c1O)CC[C@H]1[C@](C)(CO)CCC[C@]21C [Compound 26] | >25 µg/mL | – | >25 µg/mL | not active | inhibition ECytop (inhibitory cytopathic effect compared to the infection control) [3]: +
14 | COC(=O)[C@]1(C)CCC[C@]2(C)c3cc(C(C)=O)c(C(C)C)cc3CC[C@@H]12 [Compound 15a] | >50 µg/mL | – | 25 µg/mL | – | –
15 | CC(C)c1cc2c(cc1O)[C@@]1(C)CCCC(C)(C)[C@@H]1CC2 [Compound 5, (+)-ferruginol] | >50 µg/mL | 38 ± 15% | >50 µg/mL | not active | % inhibition (PFU) [8]: 28 ± 10%; Rf (reduction factor of the viral titer) [5]: 10^2
16 | CC(C)c1ccc2c(c1O)CC[C@H]1[C@](C)(C(=O)O)CCC[C@]21C [Compound 25] | >25 µg/mL | 20 ± 09% | >25 µg/mL | not active | –
17 | heparin [reference compound] | – | – | – | – | CC100 (100% cytotoxic concentration) ([1]; heparin): >100 U.I; Nontoxic concentration that showed higher viral reduction factor ([6]; Vero E6, EPTT, heparin): 10 U.I.; Nontoxic concentration that showed higher viral reduction factor ([5]; Vero E6, EPTT, heparin): 10 U.I.
18 | COC(=O)[C@@]1(C)CCC[C@]2(C)c3cc(C(C)=O)c(C(C)C)cc3CC[C@@H]12 [Compound 15b] | >50 µg/mL | 29 ± 14% | 50 µg/mL | – | % inhibition (PFU) [8]: 68 ± 20%
19 | CC(C)c1cc2c(cc1O)[C@@]1(C)CCC[C@](C)(C(=O)O)[C@@H]1CC2=O [Compound 23b] | 25 µg/mL | – | 12.5 µg/mL | not active | –
20 | dextran sulfate [DS, reference compound] | >50 µg/mL | – | – | – | Nontoxic concentration that showed higher viral reduction factor ([6]; Vero E6, 10TCID50, EPTT): 5 µg/mL
21 | CC(C)c1cc2c(cc1O)[C@@]1(C)CCC[C@](C)(CO)[C@@H]1CC2=O [Compound 21b] | >25 µg/mL | – | 25 µg/mL | – | –
22 | COC(=O)[C@]1(C)CCC[C@]2(C)c3cc(O)c(C(C)C)cc3CC[C@@H]12 [Compound 18a] | 50 µg/mL | – | 25 µg/mL | – | –
23 | CC(C)c1cc2c(cc1O)[C@@]1(C)CCC[C@@](C)(CO)[C@@H]1CC2=O [Compound 21a] | 25 µg/mL | 27 ± 12% | 12.5 µg/mL | – | inhibition ECytop (inhibitory cytopathic effect compared to the infection control) [7]: +; Rf (reduction factor of the viral titer) [5]: 10^2
24 | COC(=O)[C@]1(C)CCC[C@]2(C)c3ccc(C(C)C)c(O)c3CC[C@@H]12 [Compound 24, methyl 14-hydroxy-dehydroabietate] | >25 µg/mL | 51 ± 15% | >25 µg/mL | – | % inhibition (PFU) [8]: 48 ± 9%; Most active concentration, in μM ([8]; DENV-2 PFU assay, conversion of 3.1 μg/mL): ca. 9.3 μM; Rf (reduction factor of the viral titer) [5]: 10^2
25 | CC(C)c1ccc2c(c1)CC[C@H]1C(C)(C(=O)O)CCC[C@]21C (some centres unmarked) [Compound 13] | 50 µg/mL | 19 ± 12% | 50 µg/mL | – | Cytostatic compounds (asterisk at the label) [1]: 13*; inhibition ECytop (inhibitory cytopathic effect compared to the infection control) [7]: +
26 | CC(C)c1cc2c(cc1O)[C@@]1(C)CCC[C@@](C)(C(=O)O)[C@@H]1CC2 [Compound 19a, 12-hydroxydehydroabietic acid] | 25 µg/mL | – | 12.5 µg/mL | – | –
27 | CC(C)c1cc2c(cc1O)[C@@]1(C)CCC[C@@](C)(C(=O)O)[C@@H]1CC2=O [Compound 23a, liquiditerpenoic acid A] | >50 µg/mL | – | 50 µg/mL | – | –
